The subject of the assay is Cladosporium sphaerospermum. As to the kind of experiment: Antifungal activity against Cladosporium sphaerospermum after 72 hrs in dark by TLC assay. The class given is functional.

This is an account of results in ChEMBL document CHEMBL1150884, “Antifungal amide from leaves of Piper hispidum” (1998).

Each structure is given as a SMILES string.

`O=C(/C=C\C=C/CCc1ccc2c(c1)OCO2)N1CCCC1` displayed an MIC of 8 µg.
